Data taken from patent US11883387B2, “PqsR inverse agonists” (HELMHOLTZ-ZENTRUM FÜR INFEKTIONSFORSCHUNG GMBH, priority 2018, dated 2024).

Assays:
[1] = test system: P. aeruginosa pyocyanin production; assay: Pyocyanin assay; format: cell-based, P. aeruginosa PA14; conditions: Pseudomonas aeruginosa, PA14, 16 h, read-out: IC50-value towards pyocyanin production, PA14 in PPGAS medium, 16 h
Description: Inhibition of P. aeruginosa pyocyanin production by compounds was determined photometrically as described before.[20] In short, an overnight culture of PA14 in PPGAS medium was washed, diluted in medium to a start OD600 of 0.02, and incubated for 16 h (37° C., 200 rpm, relative humidity 75%) in the presence of test compounds. Then, cultures were extracted with chloroform and re-extracted with 0.2 M HCl. Protonated red colored pyocyanin was determined by measuring OD520 and normalizing to OD600.

PqsR = PqsR (Pseudomonas aeruginosa, UniProt Q9I4X0); assay: E. coli based β-galactosidase reporter gene assay (PqsR inverse agonistic activity); format: cell-based; parameters: expressed in transfected cells; host or cells: Escherichia coli DH5α
Description: Inhibition of pqsR-dependent gene expression of test compounds was determined in an E. coli based β-galactosidase reporter gene assay.[19] Escherichia coli DH5α was transfected with pEAL08-2 plasmid encoding pqsR under control of promoter tac and β-galactosidase reporter gene lacZ under control of promoter pqsA. Antagonistic effects of compounds were evaluated in the presence of/in competition to 50 nM PQS. A positive control was used to ensure the reliability of individual assays. First, PQS was diluted in methanol and added to the wells of a glass coated 96-deep-well plate, and the solvent was evaporated. Then, compounds were added in 5 μL DMSO to final concentrations of 0.001-10 μM. Overnight cultures of E. coli DH5a×pEAL08-2 were diluted 1:100 in LB medium with ampicillin (50 μg/ml) and incubated at 37° C. with shaking until it reached an OD600 of 0.2. Finally, 995 μL of culture was added to each well and the p-galactosidase activity was determined by ortho-nitrophenyl-p-galactoside conversion in permeabilized cells after a 2.5 h incubation period (37° C., 180 rpm). OD600, OD420, and OD550 were measured using POLARstar Omega (BMG Labtech, Ortenberg, Germany), and the activity was expressed as ratio of the slope of β-galactosidase activity between basal control (no PQS) and solvent control. IC50 values of antagonists were determined by variation of the concentration of the test compounds.

Sequence of PqsR (Q9I4X0 whole entry): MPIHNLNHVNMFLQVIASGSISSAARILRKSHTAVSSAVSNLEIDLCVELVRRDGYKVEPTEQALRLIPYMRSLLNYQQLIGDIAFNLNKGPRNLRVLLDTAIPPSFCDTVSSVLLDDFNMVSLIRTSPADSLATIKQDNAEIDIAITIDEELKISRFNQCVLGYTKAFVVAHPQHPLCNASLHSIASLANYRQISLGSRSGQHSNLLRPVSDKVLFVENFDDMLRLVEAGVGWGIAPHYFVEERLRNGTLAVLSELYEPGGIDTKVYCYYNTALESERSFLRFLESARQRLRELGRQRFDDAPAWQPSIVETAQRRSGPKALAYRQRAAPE

| SMILES | IC50 [1] | IC50 (PqsR) |
| --- | --- | --- |
| CSc1ccc(-n2cc(CNc3ccnc(C(F)(F)F)c3)nn2)cc1 [Compound 016, N-((1-(4-(methylthio)phenyl)-1H-1,2,3-triazol-4-yl)methyl)-2-(trifluoromethyl)pyridin-4-amine] | 1000 to 5000 nM | ≤ 50 nM |
| FC(F)(F)c1cc(SCc2nc3cc(Oc4ccccc4)ccc3[nH]2)cc(Cl)n1 [Compound 184, 2-(((2-chloro-6-(trifluoromethyl)pyridin-4-yl)thio)methyl)-5-phenoxy-1H-benzo[d]imidazole] | ≤ 250 nM | ≤ 50 nM |
| Clc1cc(NCc2cn(-c3ccc(Oc4ccccc4)cc3)nn2)ccn1 [Compound 049, 2-Chloro-N-((1-(4-phenoxyphenyl)-1H-1,2,3-triazol-4-yl)methyl)pyridin-4-amine] | 251 to 1000 nM | ≤ 50 nM |
| CC(C)Oc1ccc(-n2cc(CNc3cc(C#N)nc(C(F)(F)F)c3)nn2)cc1Cl [Compound 156, 4-(((1-(3-chloro-4-isopropoxyphenyl)-1H-1,2,3-triazol-4-yl)methyl)amino)-6-(trifluoromethyl)picolinonitrile] | 251 to 1000 nM | ≤ 50 nM |
| Nc1cc(SCc2cn(-c3ccc(Oc4ccccc4)cc3)nn2)nc(C(F)(F)F)n1 [Compound 065, 6-(((1-(4-phenoxyphenyl)-1H-1,2,3-triazol-4-yl)methyl)thio)-2-(trifluoromethyl)pyrimidin-4-amine] | ≤ 250 nM | ≤ 50 nM |
| FC(F)(F)c1cc(NCc2cn(-c3ccc(Cc4ccncc4)cc3)nn2)ccn1 [Compound 025, N-((1-(4-(Pyridin-4-ylmethyl)phenyl)-1H-1,2,3-triazol-4-yl)methyl)-2-(trifluoromethyl)pyridin-4-amine] | 251 to 1000 nM | ≤ 50 nM |
| FC(F)(F)Oc1ccc(-n2cc(CSc3ccnc(C(F)(F)F)c3)nn2)cc1Cl [Compound 063, 4-(((1-(3-chloro-4-(trifluoromethoxy)phenyl)-1H-1,2,3-triazol-4-yl)methyl)thio)-2-(trifluoromethyl)pyridine] | 1000 to 5000 nM | 51 to 250 nM |
| N#Cc1cc(NCc2cn(-c3ccc(Oc4ccccc4)cc3)nn2)cc(C#N)n1 [Compound 052, 4-(((1-(4-Phenoxyphenyl)-1H-1,2,3-triazol-4-yl)methyl)amino)pyridine-2,6-dicarbonitrile] | ≤ 250 nM | ≤ 50 nM |
| Clc1cc(SCc2nc3cc(Oc4ccccc4)ccc3[nH]2)ccn1 [Compound 178, 2-(((2-chloropyridin-4-yl)thio)methyl)-5-phenoxy-1H-benzo[d]imidazole] | 251 to 1000 nM | 51 to 250 nM |
| FC(F)(F)c1cc(NCc2cn(-c3ccc(OC4COC4)c(Cl)c3)nn2)ccn1 [Compound 152, N-((1-(3-chloro-4-(oxetan-3-yloxy)phenyl)-1H-1,2,3-triazol-4-yl)methyl)-2-(trifluoromethyl)pyridin-4-amine] | 1000 to 5000 nM | ≤ 50 nM |
| Fc1ccccc1Oc1ccc(-n2cc(CNc3cc(Cl)nc(C(F)(F)F)c3)nn2)cc1 [Compound 143, 2-chloro-N-((1-(4-(2-fluorophenoxy)phenyl)-1H-1,2,3-triazol-4-yl)methyl)-6-(trifluoromethyl)pyridin-4-amine] | ≤ 250 nM | ≤ 50 nM |
| FC(F)(F)c1cc(NCc2cn(-c3ccc(Cl)c(Cl)c3)nn2)ccn1 [Compound 005, N-((1-(3,4-Dichlorophenyl)-1H-1,2,3-triazol-4-yl)methyl)-2-(trifluoromethyl)pyridin-4-amine] | 251 to 1000 nM | ≤ 50 nM |
